According to patent US4822811A, “Carbazole lipoxygenase inhibiting compounds, compositions and use” (Abbott Laboratories, priority 1988, dated 1989):

These compounds were tested against T1, 5-lipoxygenase (Rattus norvegicus, UniProt P12527) (assay: Lipoxygenase IC50 Determination (in vitro 5-lipoxygenase inhibition, 20,000xg supernatant from homogenized RBL-1 cells)). Details: radiolabelled arachidonic acid, 2% DMSO, triplicate incubations, read-out: In vitro 5-lipoxygenase inhibitory potency IC50.
T1 construct: 20,000xg supernatant from 6×10^4 homogenized RBL-1 cells; endogenous in cells; host or cells: RBL-1 cells (20,000xg supernatant of homogenate)
T1 sequence (P12527 1-673): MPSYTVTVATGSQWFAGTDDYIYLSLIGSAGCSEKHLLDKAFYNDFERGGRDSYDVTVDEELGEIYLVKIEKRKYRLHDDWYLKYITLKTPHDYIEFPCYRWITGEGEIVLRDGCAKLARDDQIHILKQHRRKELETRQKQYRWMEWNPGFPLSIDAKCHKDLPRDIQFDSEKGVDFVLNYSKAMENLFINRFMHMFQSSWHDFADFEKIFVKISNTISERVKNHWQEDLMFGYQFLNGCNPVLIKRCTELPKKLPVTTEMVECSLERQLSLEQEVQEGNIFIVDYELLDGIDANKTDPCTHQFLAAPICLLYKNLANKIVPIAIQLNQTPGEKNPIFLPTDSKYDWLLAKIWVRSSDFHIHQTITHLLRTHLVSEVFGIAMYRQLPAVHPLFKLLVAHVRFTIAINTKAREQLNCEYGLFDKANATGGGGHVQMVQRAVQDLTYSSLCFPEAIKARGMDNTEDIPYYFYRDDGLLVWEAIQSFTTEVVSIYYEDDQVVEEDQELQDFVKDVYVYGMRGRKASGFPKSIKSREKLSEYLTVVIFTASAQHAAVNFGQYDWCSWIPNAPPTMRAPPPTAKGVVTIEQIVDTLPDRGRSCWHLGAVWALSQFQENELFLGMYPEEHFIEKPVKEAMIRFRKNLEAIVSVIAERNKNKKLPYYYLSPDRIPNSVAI
Assay type: biochemical
Experimental: Lipoxygenase IC50 Determination
Assays to determine 5-lipoxygenase activity were performed in […] incubations containing the 20,000xg supernatant from 6×10^4 homogenized RBL-1 cells, 2% DMSO vehicle and various concentrations of the test compound. Reactions were initiated by addition of radiolabelled arachidonic acid and terminated by acidification and ether extraction. Reaction products were separated from nonconverted substrate by thin layer chromatography and measured by liquid scintillation spectroscopy. All treatments were evaluated in triplicate incubations. Inhibition of 5-lipoxygenase activity was computed by comparison of the quantity of products formed in the treatment incubations to the mean product formation in vehicle control groups (n=8). IC50 values and 95% confidence limits were computed by linear regression analysis of percentage inhibition versus log inhibitor concentration plots. The results of the assay indicate that the compounds are inhibitors of 5-lipoxygenase.

| IC50 [nM] | Structure (SMILES) |
| --- | --- |
| 390 | CCn1c2ccccc2c2cc(CN(O)C(=O)NC)ccc21 [Example 4, N-hydroxy-N-(9-ethylcarbaz-3-ylmethyl) N-methyl urea] |
| 380 | CCn1c2ccccc2c2cc(C(C)N(O)C(N)=O)ccc21 (stereo not drawn) [Example 5, N-hydroxy-N-[1-(9-ethylcarbaz-3-yl)ethyl] urea] |
| 290 | CC(=O)N(O)C(C)c1ccc2oc3ccccc3c2c1 (stereo not drawn) [Example 1] |
